Assay results taken from US20240148821A1, “PHARMACEUTICAL USE OF CYCLIC PEPTIDE COMPOUND” (CHUGAI SEIYAKU KABUSHIKI KAISHA, priority 2021, published 2024).
Numbered stars: 1 amine (or outer) side, 2 acyl side, 3 side chain; on linkers, the order of the positions; unused ones are H or OH. Bridge positions count the residues as written; N and C are the ends. Square brackets hold non-standard residues; d marks the D form. Peptide text beside a SMILES is read from it. * marks the point of attachment. hPhe(3-Cl-4-CF3) = N[C@@H](CCc1ccc(C(F)(F)F)c(Cl)c1)C(=O)O; hPhe(3-F,4-CF3) = N[C@@H](CCc1ccc(C(F)(F)F)c(F)c1)C(=O)O; NMePhe(4-F) = CN[C@@H](Cc1ccc(F)cc1)C(=O)O; X72 = O=C([C@@H]1Cc2ccccc2N1[*:1])[*:2]; NMeGly(cPent) = CN[C@H](C(=O)O)C1CCCC1; NMeAla(cPr) = CN[C@@H](CC1CC1)C(=O)O; NMeCha = CN[C@@H](CC1CCCCC1)C(=O)O; NMeChg = CN[C@H](C(=O)O)C1CCCCC1; NMeF = CN[C@@H](Cc1ccccc1)C(=O)O; NMeD = CN[C@@H](CC(=O)O)C(=O)O; NMeL = CN[C@@H](CC(C)C)C(=O)O; NMeV = CN[C@H](C(=O)O)C(C)C; d(β3hA) = C[C@@H](N)CC(=O)O; Azetidin(1-yl) = C1CN(*)C1; NMeA = CN[C@@H](C)C(=O)O; NMeAib = CNC(C)(C)C(=O)O; Piperidide = C1CCN(*)CC1; Pyrrolidide = C1CCN(*)C1; dNMeA = CN[C@H](C)C(=O)O; Ac5c = NC1(C(=O)O)CCCC1; Aze = O=C(O)[C@@H]1CCN1; Aib = CC(C)(N)C(=O)O; βAla = NCCC(=O)O; Sar = CNCC(=O)O

Each compound was assayed on Human pancreatic cancer cell line AsPC-1 (G12D mutation Kras) (assay: AsPC-1 cell growth inhibition (AsPC-1 CGI)). Settings: read-out: AsPC-1 cell growth inhibition, 50% growth inhibitory concentration (IC50 value); 96 hours, CellTiter-Glo, values classified in ranges.
Type: cell-based
Method: Test compounds were serially dilated with dimethyl sulfoxide, and 200 nL was then dispensed to a U-bottom 96-well plate using Labcyte Echo. […] The cell suspension was dispensed to a. plate containing a test compound at 100 μL per well and incubated at 37° C. in a 5% carbon dioxide gas incubator. 96 hours later, 80 μL of CellTiter-Glo (Promega) was added to each well and fluorescence was measured.

SMILES	IC50 [nM]
CC[C@H](C)[C@@H]1NC(=O)[C@H](C)N(C)C(=O)C[C@@H](C(=O)N2CCCCC2)N(C)C(=O)[C@H](C(C)C)N(C)C(=O)C(C)(C)N(C)C(=O)[C@@H]2CCCN2C(=O)[C@H](CCc2ccc(C(F)(F)F)c(Cl)c2)NC(=O)CN(C)C(=O)[C@H](CC2CCCCC2)N(C)C(=O)CN(C)C(=O)CN(C)C1=O [Compound 507] ([NMeA]I[Sar][Sar][NMeCha][Sar][hPhe(3-Cl-4-CF3)]P[NMeAib][NMeV][NMeD]-Piperidide; lactam N-11)	> 500
CC[C@H](C)[C@@H]1NC(=O)[C@H](CC(C)C)N(C)C(=O)C[C@@H](C(=O)N2CCCC2)NC(=O)[C@H](C(C)C)N(C)C(=O)C2(CCCC2)NC(=O)[C@@H]2CCCN2C(=O)[C@H](CCc2ccc(C(F)(F)F)c(Cl)c2)NC(=O)CN(C)C(=O)[C@H](CC2CCCCC2)N(C)C(=O)CN(C)C(=O)CN(C)C1=O [Compound 508] ([NMeL]I[Sar][Sar][NMeCha][Sar][hPhe(3-Cl-4-CF3)]P[Ac5c][NMeV]D-Pyrrolidide; lactam N-11)	> 500
CC[C@H](C)[C@@H]1NC(=O)[C@H](CC(C)C)N(C)C(=O)C[C@@H](C)NC(=O)[C@H](C(C)C)N(C)C(=O)C2(CCCC2)NC(=O)[C@@H]2CCCN2C(=O)[C@H](CCc2ccc(C(F)(F)F)c(Cl)c2)NC(=O)CN(C)C(=O)[C@H](CC2CC2)N(C)C(=O)CN(C)C(=O)CN(C)C1=O [Compound 511] (cyclo([Ac5c][NMeV][d(β3hA)][NMeL]I[Sar][Sar][NMeAla(cPr)][Sar][hPhe(3-Cl-4-CF3)]P))	> 500
CC[C@H](C)[C@@H]1NC(=O)[C@H](CC(C)C)N(C)C(=O)C[C@@H](C(=O)N2CCCCC2)N(C)C(=O)[C@H](C2CCCCC2)N(C)C(=O)C2(CCCC2)NC(=O)[C@@H]2Cc3ccccc3N2C(=O)[C@H](CCc2ccc(C(F)(F)F)c(Cl)c2)NC(=O)CN(C)C(=O)[C@H](CC2CCCCC2)N(C)C(=O)CN(C)C(=O)CN(C)C1=O [Compound 514] ([NMeL]I[Sar][Sar][NMeCha][Sar][hPhe(3-Cl-4-CF3)][X72][Ac5c][NMeChg][NMeD]-Piperidide; lactam N-11)	> 500
CC[C@H](C)[C@@H]1NC(=O)[C@H](CC(C)C)N(C)C(=O)C[C@@H](C(=O)N2CCC2)N(C)C(=O)[C@H](C2CCCC2)N(C)C(=O)C2(CCCC2)NC(=O)[C@@H]2CCCN2C(=O)[C@H](CCc2ccc(C(F)(F)F)c(Cl)c2)NC(=O)CN(C)C(=O)[C@H](CC2CCCCC2)N(C)C(=O)[C@@H]2CCN2C(=O)[C@H](C)N(C)C1=O [Compound 515] ([NMeL]I[NMeA][Aze][NMeCha][Sar][hPhe(3-Cl-4-CF3)]P[Ac5c][NMeGly(cPent)][NMeD]-{Azetidin(1-yl)}; lactam N-11)	≤ 20
CC[C@H](C)[C@@H]1NC(=O)[C@H](C)N(C)C(=O)C[C@@H](C)NC(=O)[C@H](C(C)C)N(C)C(=O)C2(CCCC2)NC(=O)[C@@H]2CCCN2C(=O)[C@H](CCc2ccc(C(F)(F)F)c(Cl)c2)NC(=O)[C@@H](C)N(C)C(=O)[C@H](CC2CCCCC2)N(C)C(=O)[C@@H]2CCCN2C(=O)CN(C)C1=O [Compound 516] (cyclo([Ac5c][NMeV][d(β3hA)][NMeA]I[Sar]P[NMeCha][dNMeA][hPhe(3-Cl-4-CF3)]P))	> 500
CC[C@H](C)[C@@H]1NC(=O)[C@H](CC(C)C)N(C)C(=O)C[C@@H](C(=O)N2CCCCC2)N(C)C(=O)[C@H](C(C)C)N(C)C(=O)C(C)(C)NC(=O)[C@@H]2CCCN2C(=O)[C@H](CCc2ccc(C(F)(F)F)c(F)c2)NC(=O)CN(C)C(=O)[C@H](CC2CCCCC2)N(C)C(=O)CN(C)C(=O)CN(C)C1=O [Compound 522] ([NMeL]I[Sar][Sar][NMeCha][Sar][hPhe(3-F,4-CF3)]P[Aib][NMeV][NMeD]-Piperidide; lactam N-11)	> 500
CC[C@H](C)[C@@H]1NC(=O)[C@H](CC(C)C)N(C)C(=O)C[C@@H](C(=O)N2CCCCC2)N(C)C(=O)[C@H](C2CCCCC2)N(C)C(=O)C2(CCCC2)NC(=O)[C@H](Cc2ccccc2)N(C)C(=O)[C@H](CCc2ccc(C(F)(F)F)c(Cl)c2)NC(=O)CN(C)C(=O)[C@H](CC2CCCCC2)N(C)C(=O)[C@@H]2CCN2C(=O)CN(C)C1=O [Compound 527] ([NMeL]I[Sar][Aze][NMeCha][Sar][hPhe(3-Cl-4-CF3)][NMeF][Ac5c][NMeChg][NMeD]-Piperidide; lactam N-11)	> 500
CC[C@H](C)[C@@H]1NC(=O)CCNC(=O)[C@H](Cc2ccc(F)cc2)N(C)C(=O)[C@H](C2CCCCC2)N(C)C(=O)C2(CCCC2)NC(=O)[C@@H]2CCCN2C(=O)[C@H](CCc2ccc(C(F)(F)F)c(Cl)c2)NC(=O)CN(C)C(=O)[C@H](CC2CCCCC2)N(C)C(=O)CN(C)C(=O)CN(C)C1=O [Compound 528] (cyclo([Ac5c][NMeChg][NMePhe(4-F)][βAla]I[Sar][Sar][NMeCha][Sar][hPhe(3-Cl-4-CF3)]P))	> 500
